Here are results for one molecule from patent US20240099298A1, “BIOINSECTICIDAL COMPOSITIONS CONTAINING MONOTERPENES AND METHODS OF USE THEREOF” (priority 2017, published 2024).

Values after ≈ are worked out from the molar mass of the structure shown. A value given as a limit tells only on which side of the number the result lay.

For data set [1], the target named is recombinant gamma-aminobutyric acid receptor-associated protein (rGABARAP) (Frankliniella occidentalis, UniProt A0A6J1T1Q2). In words: Isothermal titration calorimetry (ITC) binding to rGABARAP. Particulars: 25° C., pH 7.4. On the procedure: Preparation of recombinant GABARAP (rGABARAP) protein. RNA was extracted from F. occidentalis and cDNA was then synthesized. GABARAP (GenBank accession No. LOC113211372) was obtained after PCR amplification (Stafford-Banks, et al. (2014) Plos One 9:e94447).
(§1) The isothermal titration thermal binding measurements were performed with an ITC-200 calorimeter (GE Healthcare, Boston, MA) at 25° C. in a buffer containing 50 mM Tris-HCl and 100 mM NaCl (pH 7.4). […] The MicroCal Origin 7.0 software system was used for data processing. The first run was a pre-run and was excluded from the final data. The amount of protein in the sample pool was constant. […] The experimental bimolecular interaction data from the 18 drops were used to calculate the dissociation constant. The dissociation constant […] was calculated as 1/K (Li, et al. (2018) RSC Advances 8:18952-18958).
(Isothermal titration calorimetry measures the heat released or taken up as one component is titrated into another.)

Data set [2] deals with T. chilonis (parasitic wasp). The note with it: non-target parasitic wasp, mortality after 15 minutes of exposure.
Data set [3] has as its system Bactrocera cucuribitae (Coquillett) (melon fly). The note with it: melon fly.
Data set [4] deals with Musca domestica (Linnaeus) (housefly). The note with it: adult housefly, exposed one hour, mortality in 24 hours.
Data set [5] has as its system Aedes aegypti (Linnaeus) (mosquito). The note with it: adult mosquito, exposed 30 minutes, mortality in 24 hours.
In data set [6] the test system is Blatta lateralis (Walker) (cockroach). Particulars: cockroach second instar nymphs, exposed one hour.
The test system of data set [7] is Frankliniella occidentalis second-instar nymphs. Kind of data set: whole plant or invertebrate. Particulars: 24 h, second-instar nymphs of F. occidentalis, 24 h after treatment. As to the method:
Chemicals. […] These monoterpenes and the positive control spinosyn A (Bosite Technology, Chongqing, China) were dissolved in acetone (10 g/L).
Insects. F. occidentalis Thrips were provided by the Institute of Vegetables and Flowers, Chinese Academy of Agricultural Sciences (Beijing, China), and kept in a box (19 cm×14 cm×20 cm) at 27±1° C., humidity of 50%-60% and a photoperiod of 16:8 h (light:dark). The population was established with sword beans (Canavalia gladiata). Second-instar nymphs with the same growth were tested.
Insect Assays. […] The leaf blade (2 cm×3 cm) was immersed in the solution for 10 s in the test solution, and then air-dried until there were no water drops on the surface. The concentrations were the same as those used in the insecticide-impregnated membrane method. After the chemical film had been formed for 2 h, the infusion leaves were placed in the bottles. The second-instar nymphs were picked with a soft writing brush to make up ten insects per bottle. The bottles were sealed with plastic wrap. 1% Triton X-100 (m/V) aqueous solution as a blank control. Each treatment was repeated four times. The bottles were placed under temperature of 27±1° C., humidity of 50%-60% and photoperiod of 16:8 h (light:dark). […] The insects were touched with a soft brush and numbers of dead and living Thrips were recorded, followed by calculation of the mortality rates.

Data set [8] deals with T1, rGABARAP^Y174A (Frankliniella occidentalis, UniProt A0A6J1T1Q2). In words: MST binding to rGABARAP mutant. Particulars: read-out: Kd value, MST. On the procedure:
Interaction between ME and rGABARAP. A Nano Temper Monolith NT.115 MST system (Nano Temper, Munich, Germany) was used to assess the binding affinities between the target compounds and rGABARAP according to the published procedures (Zan, et al. (2020) Journal of Agricultural and Food Chemistry 68:6280-6285). Spinosyn A was used as a chemical positive control. Spinosyn A (≥1 nM) can trigger a change of the Cl^− current of insect neuron GABAAR, which is considered to be an insecticidal action mechanism of spinosyn A (Watson (2001) Pesticide Biochemistry and Physiology 71:20-28). Ovalbumin (OVA) (Sangon Biotech, Shanghai, China) is a control protein consisting of 385 amino acid residues. The interaction between OVA and ME was used as a protein control experiment (Huntington, et al. (1995) Protein Science 4:613-621).
(§2) Preparation of rGABARAP Mutant and Interaction Between ME and rGABARAP Mutant. […] DNAman was used to convert the nucleic acid sequence into an amino acid sequence and find the Y174 site. Y174 was mutated to A174. The rGABARAP mutant gene loaded into the pMCSG19 vector and the His tags at both ends of the sequence were retained to construct a prokaryotic expression plasmid. The carrier contained a maltose binding protein (MBP) tag that was not cut for verification. However, MBP and ME were used as treatment controls. The mutant plasmid was constructed in Sangon Biotech (Shanghai, China). The protein expression, purification, and desalting procedures of rGABARAP^Y174A mutant and rGABARAP were the same. Subsequently, the binding kinetics of ME and rGABARAP^Y174A were tested by MST and ITC.

Data set [9] concerns H. picinus (Nitidulid beetle). Kind of data set: Median lethal time (LT50) test, Nitidulid beetle. The format is in vivo, Haptoncus picinus. The source says: (§3) All treatments and controls were in triplicate.
Toxicity of Monoterpenes as Fumigants. […] Therefore, to determine how fast the monoterpenes act as fumigants, it was necessary to determine their LT50 values for the target organisms.

Data set [10] deals with Musca domestica (housefly). Kind of data set: Median knockdown concentration (KC50) test, housefly. The data set is classed as in vivo. Particulars: Musca domestica.
From the text: as §3
Knockdown Activity of Monoterpenes.

Data set [11] concerns the target T1, rGABARAP^Y174A. In words: ITC binding to rGABARAP mutant. The note with it: read-out: Kd value, ITC. On the procedure:
as §1, §2

T1 sequence (A0A6J1T1Q2 entry or part of it, stated change not applied): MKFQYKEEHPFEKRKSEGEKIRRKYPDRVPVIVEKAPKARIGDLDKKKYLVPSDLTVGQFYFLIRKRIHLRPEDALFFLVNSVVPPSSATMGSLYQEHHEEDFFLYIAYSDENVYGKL
Sequence of recombinant gamma-aminobutyric acid receptor-associated protein (rGABARAP) (A0A6J1T1Q2 1-118): as the sequence (A0A6J1T1Q2 entry or part of it, stated change not applied) above

As a reminder, the Kd is the free concentration of one partner at which half of the binding sites on the other are occupied at equilibrium, for simple one-to-one binding. A word on the LC50: it is the concentration lethal to half of the exposed cells or organisms. Low readings indicate greater toxicity, high ones lower toxicity. Take `C=CC(C)(O)CCC=C(C)C` (centres unmarked) [Linalool, 3,7-dimethylocta-1,6-dien-3-o1]: the results for the dissociation constant Kd (in data set [1]; at rGABARAP^Y174A [8]; at rGABARAP^Y174A [11]) were 6.89 µM, 16.3 ± 6.79 µM and 8.92 µM, respectively. Moreover, the “LC50 (fiducial limits) against T. chilonis” value in data set [2] was found to be 2.88 µg/mL (≈ 18.7 µM). Moreover, in data set [2], the “LC90 (fiducial limits) against T. chilonis” value is 6.24 µg/mL (≈ 40.5 µM). Besides, the “LC50 (fiducial limits)” value in [3] is above 243 µg/mL; in data set [4] it was 30.6 µg/mL (≈ 198 µM); in data set [5], above 243 µg/mL; in data set [6], 345 µg/mL (≈ 2240 µM). For the same molecule, the “LC90 (fiducial limits)” value was above 243 µg/mL in data set [3], 176 µg/mL (≈ 1140 µM) in data set [4], above 243 µg/mL in data set [5] and 1700 µg/mL (≈ 11000 µM) in [6]. This molecule registered a median lethal concentration (LC50) in data set [7] of 7 µg/mL (≈ 45.4 µM). Moreover, the “LT50 (fiducial limits)” value in data set [9] is 1.58 h. Also, the entries for the “KC50 (fiducial limits)” value in [10] (20 Minutes) and in [10] (30 Minutes) were above 243 µg/mL and 192 µg/mL, respectively.
